This passage reports mortality results from US9883675B2, “Method for controlling pests” (SUMITOMO CHEMICAL COMPANY, LIMITED, priority 2013, dated 2018).

The test system of the assay is Diamondback moth (Plutella xylostella). The assay can be described thus: Test Example 1: Japanese radish seed treatment, mortality of Diamondback moth larvae. In kind it is in vivo. The settings on record: 48 h, Diamondback moth third instar larvae released 4 days after seeding, observed 2 days after release, average of two replications; for mortality at 0.01 mg: dose 0.01 mg/1 grain of seed; for mortality at 0.2 mg: dose 0.2 mg/1 grain of seed. The method, then: Each of the present fused heterocyclic compounds 3, 4, 5, 9, 15, 16, 17, 18, 19, 20, 22, 25, 72, 74, 85, 130, 399, 409, 414, 419, 443, 444, 445, 464 and 467 was dissolved in acetone (available from Wako Pure Chemical Industries, Ltd.) containing 5% (W/V) SOLGEN TW-20 (available from Daiichi-Kogyo Seiyaku Co. Ltd.) so as to give a prescribed concentration, and to prepare the testing solution.
Nine (9) grains of the Japanese raddish (Raphanus sativas var. longipinnatus) were placed in a 2 ml volume polypropylene microtube (manufactured by As One Co.) and thereto was added 18 μl of the above testing solution and the seeds in the microtube were shaken and stirred on Stirrer (Trade name: VORTEX-GENIE2, manufactured by Scientific Industries, Inc.). After the testing solution was spread uniformly to the whole seed, the seeds were allowed to air dry.
To a 90 ml volume of plastic cup filled with ten (10) g of culture soil (Trade name: Aisai No. 1; available from Katakura Chikkarin Co., Ltd.) was added water (5 ml) and thereto was seeded three (3) grains of the above seeds.
At four days after the seeding, Diamondback moth (Plutella xylostella) at the third instar larval stages were released in a ratio of 10 (ten) heads of insects per the cup, and then the cups were covered with nylon gauze and covered with a lid (hereinafter, referred to as “treated group”).
On the other hand, Japanese raddish was seeded by the similar procedures to the treated group except that the present fused heterocyclic compound was not dissolved in acetone (available from Wako Pure Chemical Industries, Ltd.) containing 5% (W/V) SOLGEN TW-20 (available from Daiichi-Kogyo Seiyaku Co. Ltd.), and the larvae were released, and the cups were covered with a lid (hereinafter, referred to as “Untreated group”).
At two days after the release, the surviving and death of the larvae were observed and on basis of the results of the observation, the mortalities of both groups were calculated by the following equation 1), respectively. Two replication tests were performed on each group. The average value is shown below. Mortality (%)=(Total number of […])/Total number of Tested insects×100 Equation 1)

With `CCS(=O)(=O)c1cccnc1-c1nc2cc(C(F)(F)F)cnc2n1C` [Present fused heterocyclic compound 3, 2-(3-ethylsulfonylpyridin-2-yl)-3-methyl-6-trifluoromethyl-3H-imidazo[4,5-b]pyridine], the mortality at 0.01 mg came out at 100% and the mortality at 0.2 mg amounted to 100%.

Take `CCSc1cc(C(F)(F)F)cnc1-c1nc2cc(C(F)(F)F)cnc2n1C` [Present fused heterocyclic compound 4, 2-(3-ethylsulfanyl-5-trifluoromethylpyridin-2-yl)-3-methyl-6-trifluoromethyl-3H-imidazo[4,5-b]pyridine]: the mortality at 0.01 mg was 100% and the mortality at 0.2 mg was 100%.

Take `CCS(=O)(=O)c1cc(C(F)(F)F)cnc1-c1nc2cc(C(F)(F)F)cnc2n1C` [Present fused heterocyclic compound 5, 2-(3-ethylsulfonyl-5-trifluoromethylpyridin-2-yl)-3-methyl-6-trifluoromethyl-3H-imidazo[4,5-b]pyridine]: the mortality at 0.01 mg is 100% and the mortality at 0.2 mg turned out to be 100%.

Regarding `CCSc1cccnc1-c1nc2cc(I)cnc2n1C` [Present fused heterocyclic compound 9, 2-(3-ethylsulfanyl-pyridin-2-yl)-6-iodo-3-methyl-3H-imidazo[4,5-b]pyridine], the mortality at 0.01 mg worked out at 100% and the mortality at 0.2 mg stood at 100%.

Consider `CCS(=O)(=O)c1cccnc1-c1nc2cc(SC(F)(F)F)cnc2n1C` [Present fused heterocyclic compound 15, 2-(3-ethylsulfonyl-pyridin-2-yl)-3-methyl-6-trifluoromethylsulfanyl-3H-imidazo[4,5-b]pyridine], for which the mortality at 0.01 mg is 100% and the mortality at 0.2 mg is 100%.

As to `CCS(=O)(=O)c1cccnc1-c1nc2cc(S(=O)(=O)C(F)(F)F)cnc2n1C` [Present fused heterocyclic compound 16, 2-(3-ethylsulfonyl-pyridin-2-yl)-3-methyl-6-trifluoromethylsulfonyl-3H-imidazo[4,5-b]pyridine], the mortality at 0.01 mg is 100% and the mortality at 0.2 mg worked out at 100%.

As for `CCSc1cc(C(F)(F)F)cnc1-c1nc2cc(C(F)(F)C(F)(F)F)cnc2n1C` [Present fused heterocyclic compound 17, 2-(3-Ethylsulfanyl-5-trifluoromethyl-pyridin-2-yl)-3-methyl-6-pentafluoroethyl-3H-imidazo[4,5-b]pyridine], the mortality at 0.01 mg came out at 100% and the mortality at 0.2 mg is 100%.

As for `CC[S+]([O-])c1cc(C(F)(F)F)cnc1-c1nc2cc(C(F)(F)C(F)(F)F)cnc2n1C` (stereo not shown) [Present fused heterocyclic compound 18, 2-(3-Ethylsulfinyl-5-trifluoromethyl-pyridin-2-yl)-3-methyl-6-pentafluoroethyl-3H-imidazo[4,5-b]pyridine], the mortality at 0.01 mg is 100% and the mortality at 0.2 mg came to 100%.

As to `CCS(=O)(=O)c1cc(C(F)(F)F)cnc1-c1nc2cc(C(F)(F)C(F)(F)F)cnc2n1C` [Present fused heterocyclic compound 19, 2-(3-ethylsulfonyl-5-trifluoromethyl-pyridin-2-yl)-3-methyl-6-pentafluoroethyl-3H-imidazo[4,5-b]pyridine], the mortality at 0.01 mg amounted to 100% and the mortality at 0.2 mg was determined as 100%.

`CCS(=O)(=O)c1cccnc1-c1nc2cc([S+]([O-])C(F)(F)F)cnc2n1C` (stereo not shown) [Present fused heterocyclic compound 20, 2-(3-ethylsulfonyl-pyridin-2-yl)-3-methyl-6-trifluoromethylsulfinyl-3H-imidazo[4,5-b]pyridine]: the mortality at 0.01 mg is 100% and the mortality at 0.2 mg was 100%.

Regarding `CCS(=O)(=O)c1cccnc1-c1nc2cc(C(F)(F)F)c[n+]([O-])c2s1` [Present fused heterocyclic compound 22, 2-(3-ethylsulfonyl-2-yl)-6-(trifluoromethyl)thiazolo[5,4-b]pyridine 4-oxide], the mortality at 0.01 mg is 100% and the mortality at 0.2 mg was determined as 100%.

As to `CCS(=O)(=O)c1cc(C(F)(F)F)cnc1-c1nc2cc(S(=O)(=O)C(F)(F)F)cnc2n1C` [Present fused heterocyclic compound 25, 2-(3-Ethylsulfonyl-5-trifluoromethyl-pyridin-2-yl)-3-methyl-6-trifluoromethylsulfonyl-3H-imidazo[4,5-b]pyridine], the mortality at 0.01 mg is 100% and the mortality at 0.2 mg was determined as 100%.

As to `CCS(=O)(=O)c1cc(C(F)(F)C(F)(F)F)cnc1-c1nc2cc(C(F)(F)F)cnc2n1C` [Present fused heterocyclic compound 72, 2-(3-ethylsulfonyl-5-pentafluoroethylpyridin-2-yl)-3-methyl-6-trifluoromethyl-3H-imidazo[4,5-b]pyridine], the mortality at 0.01 mg amounted to 100% and the mortality at 0.2 mg amounted to 100%.

As to `CCS(=O)(=O)c1cc(C(F)(F)C(F)(F)F)cnc1-c1nc2cc(C(F)(F)C(F)(F)F)cnc2n1C` [Present fused heterocyclic compound 74, 2-(3-ethylsulfonyl-5-pentafluoroethylpyridin-2-yl)-3-methyl-6-pentafluoroethyl-3H-imidazo[4,5-b]pyridine], the mortality at 0.01 mg stood at 100% and the mortality at 0.2 mg amounted to 100%.

Consider `CCS(=O)(=O)c1cccnc1-c1nc2cc(C(F)(F)F)ccc2o1` [Present fused heterocyclic compound 85, 2-(3-Ethylsulfonylpyridin-2-yl)-5-trifluoromethyl-benzoxazole], for which the mortality at 0.01 mg was 90% and the mortality at 0.2 mg is 95%.

Take `CCS(=O)(=O)c1cccnc1-c1nc2cc(C(F)(F)F)cc(C#N)c2n1C` [Present fused heterocyclic compound 130, 7-Cyano-2-(3-ethylsulfonylpyridin-2-yl)-1-methyl-5-trifluoromethyl-1H-benzimidazole]: the mortality at 0.01 mg worked out at 100% and the mortality at 0.2 mg was found to be 80%.

On to `CCS(=O)(=O)c1cc(C(F)(F)F)cnc1-c1nc2cc(C(F)(F)F)c(C#N)nc2n1C` [Present fused heterocyclic compound 399, 5-cyano-2-(3-ethylsulfonyl-5-trifluoromethylpyridin-2-yl)-3-methyl-6-trifluoromethyl-3H-imidazo[4,5-b]pyridine], for which the mortality at 0.01 mg was 90% and the mortality at 0.2 mg is 95%.

Turning to `CCS(=O)(=O)c1cc(C(F)(F)F)cnc1-c1nc2cc(C(F)(F)C(F)(F)F)c[n+]([O-])c2n1C` [Present fused heterocyclic compound 409, 2-(3-ethylsulfonyl-5-trifluoromethyl-pyridin-2-yl)-3-methyl-6-pentafluoroethyl-3H-imidazo[4,5-b]pyridine 4-oxide], the mortality at 0.01 mg came to 100% and the mortality at 0.2 mg came out at 100%.

With `CCS(=O)(=O)c1cc(C(OC)(OC)OC)cnc1-c1nc2cc(C(F)(F)C(F)(F)F)cnc2n1C` [Present fused heterocyclic compound 414, 2-(3-ethylsulfonyl-5-trimethoxymethyl-pyridin-2-yl)-3-methyl-6-pentafluoroethyl-3H-imidazo[4,5-b]pyridine], the mortality at 0.01 mg came out at 95% and the mortality at 0.2 mg stood at 100%.

For `Cn1c(-c2ncc(C(F)(F)F)cc2S(C)(=O)=O)nc2cc(C(F)(F)C(F)(F)F)cnc21` [Present fused heterocyclic compound 419, 2-(3-Methylsulfonyl-5-trifluoromethylpyridin-2-yl)-3-methyl-6-pentafluoroethyl-3H-imidazo[4,5-b]pyridine], the mortality at 0.01 mg is 100% and the mortality at 0.2 mg was determined as 100%.

With `CCS(=O)(=O)c1cccnc1-c1nc2cc(SC(F)(F)F)ccc2o1` [Present fused heterocyclic compound 443, 2-(3-ethylsulfonylpyridin-2-yl)-5-(trifluoromethylsulfanyl)benzoxazole], the mortality at 0.01 mg turned out to be 100% and the mortality at 0.2 mg was determined as 100%.

As for `CCS(=O)(=O)c1cccnc1-c1nc2cc([S+]([O-])C(F)(F)F)ccc2o1` (stereo not shown) [Present fused heterocyclic compound 444, 2-(3-ethylsulfonylpyridin-2-yl)-5-(trifluoromethylsulfinyl)benzoxazole], the mortality at 0.01 mg came to 100% and the mortality at 0.2 mg is 100%.

Regarding `CCS(=O)(=O)c1cccnc1-c1nc2cc(S(=O)(=O)C(F)(F)F)ccc2o1` [Present fused heterocyclic compound 445, 2-(3-ethylsulfonylpyridin-2-yl)-5-(trifluoromethylsulfonyl)benzoxazole], the mortality at 0.01 mg stood at 100% and the mortality at 0.2 mg came to 100%.

Usually mortality stands for the percentage killed.
